From paper PMC5218480 (PLoS ONE, 2017)

System: MV-4-11 cells
Assay: Gene expression microarray analysis (Affymetrix PrimeView) and GSEA
Type: cell-based, human
Parameters: RFU PODN (11730768_x_at) / Fold change /veh PODN (11730768_x_at) / RFU LINC00158 (11744669_a_at) / Fold change /veh LINC00158 (11744669_a_at) / RFU DUSP10 (11751237_a_at) / Fold change /veh DUSP10 (11751237_a_at) / RFU ID3 (11757404_x_at) / Fold change /veh ID3 (11757404_x_at) / RFU PLEKHG5 (11737974_s_at) / Fold change /veh PLEKHG5 (11737974_s_at) / RFU LRRC4B (11730491_at) / Fold change /veh LRRC4B (11730491_at) / RFU GIMAP4 (11747438_a_at) / Fold change /veh GIMAP4 (11747438_a_at) / RFU KRT8 (11758183_x_at) / Fold change /veh KRT8 (11758183_x_at) / RFU CNN1 (11734310_a_at) / Fold change /veh CNN1 (11734310_a_at) / RFU VPS37D (11726825_at) / Fold change /veh VPS37D (11726825_at) / RFU C10orf10 (11716522_x_at) / Fold change /veh C10orf10 (11716522_x_at) / RFU KIR2DL2 /// KIR2DL4 /// KIR2DL5A /// KIR2DL5B /// KIR2DS1 /// KIR2DS2 /// KIR2DS3 /// KIR2DS4 /// KIR3DL3 /// KIR3DL3 /// KIR3DS1 (11738374_at) / Fold change /veh KIR2DL2 /// KIR2DL4 /// KIR2DL5A /// KIR2DL5B /// KIR2DS1 /// KIR2DS2 /// KIR2DS3 /// KIR2DS4 /// KIR3DL3 /// KIR3DL3 /// KIR3DS1 (11738374_at) / RFU C1QL1 (11718748_at) / Fold change /veh C1QL1 (11718748_at) / RFU TMPRSS4 (11747572_a_at) / Fold change /veh TMPRSS4 (11747572_a_at) / RFU HAMP (11756126_x_at) / Fold change /veh HAMP (11756126_x_at) / RFU RNFT2 (11725882_a_at) / Fold change /veh RNFT2 (11725882_a_at) / RFU NR4A2 (11747474_a_at) / Fold change /veh NR4A2 (11747474_a_at) / RFU ABCC12 (11746883_a_at) / Fold change /veh ABCC12 (11746883_a_at) / RFU TMEM136 (11760407_x_at) / Fold change /veh TMEM136 (11760407_x_at) / RFU CLDN22 /// WWC2 (11732394_at) / Fold change /veh CLDN22 /// WWC2 (11732394_at) / RFU HLA-DPB1 (11760878_x_at) / Fold change /veh HLA-DPB1 (11760878_x_at) / RFU SPINT1 (11716480_a_at) / Fold change /veh SPINT1 (11716480_a_at) / RFU GAP43 (11754022_s_at) / Fold change /veh GAP43 (11754022_s_at) / RFU A4GNT (11735810_at) / Fold change /veh A4GNT (11735810_at) / RFU PRB3 (11715151_x_at) / Fold change /veh PRB3 (11715151_x_at) / RFU TUBB4B (11761932_at) / Fold change /veh TUBB4B (11761932_at) / RFU CAPN14 (11732068_a_at) / Fold change /veh CAPN14 (11732068_a_at) / RFU TMCC2 (11721928_a_at) / Fold change /veh TMCC2 (11721928_a_at) / RFU IRGQ (11745062_a_at) / Fold change /veh IRGQ (11745062_a_at) / RFU FAM174B (11720279_a_at) / Fold change /veh FAM174B (11720279_a_at) / RFU TMPRSS4 (11748680_a_at) / Fold change /veh TMPRSS4 (11748680_a_at) / RFU FAM212B (11763350_a_at) / Fold change /veh FAM212B (11763350_a_at) / RFU PLEKHG5 (11743358_a_at) / Fold change /veh PLEKHG5 (11743358_a_at) / RFU ZSCAN30 (11745921_a_at) / Fold change /veh ZSCAN30 (11745921_a_at) / RFU CMKLR1 (11741424_a_at) / Fold change /veh CMKLR1 (11741424_a_at) / RFU LOC101060620 /// MAPK8IP1 (11723275_at) / Fold change /veh LOC101060620 /// MAPK8IP1 (11723275_at) / RFU SPTSSB (11747773_x_at) / Fold change /veh SPTSSB (11747773_x_at) / RFU PRSS12 (11739890_at) / Fold change /veh PRSS12 (11739890_at) / RFU BIN1 (11741810_x_at) / Fold change /veh BIN1 (11741810_x_at) / RFU WNT11 (11732464_a_at) / Fold change /veh WNT11 (11732464_a_at) / RFU C10orf10 (11716521_a_at) / Fold change /veh C10orf10 (11716521_a_at) / RFU C5orf56 (11738089_at) / Fold change /veh C5orf56 (11738089_at) / RFU CYB561 (11721691_x_at) / Fold change /veh CYB561 (11721691_x_at) / RFU ANKRD19P (11752326_a_at) / Fold change /veh ANKRD19P (11752326_a_at) / RFU OR2T12 /// OR2T33 /// OR2T8 (11738714_s_at) / Fold change /veh OR2T12 /// OR2T33 /// OR2T8 (11738714_s_at) / RFU VCAN (11748164_a_at) / Fold change /veh VCAN (11748164_a_at) / RFU JSRP1 (11732532_at) / Fold change /veh JSRP1 (11732532_at) / RFU KRTAP10-11 (11738290_x_at) / Fold change /veh KRTAP10-11 (11738290_x_at) / RFU MYO3A (11730013_a_at) / Fold change /veh MYO3A (11730013_a_at) / RFU EBF3 (11725865_a_at) / Fold change /veh EBF3 (11725865_a_at) / RFU CAMK2N1 (11719241_x_at) / Fold change /veh CAMK2N1 (11719241_x_at) / RFU C5orf56 (11738088_a_at) / Fold change /veh C5orf56 (11738088_a_at) / RFU OLFML3 (11715873_a_at) / Fold change /veh OLFML3 (11715873_a_at) / RFU LOC100653217 /// NTM (11731650_a_at) / Fold change /veh LOC100653217 /// NTM (11731650_a_at) / RFU MAPK11 (11762145_a_at) / Fold change /veh MAPK11 (11762145_a_at) / RFU FIZ1 (11724087_x_at) / Fold change /veh FIZ1 (11724087_x_at) / RFU OASL (11726364_x_at) / Fold change /veh OASL (11726364_x_at) / RFU SOX15 (11748057_x_at) / Fold change /veh SOX15 (11748057_x_at) / RFU CD79A (11719716_a_at) / Fold change /veh CD79A (11719716_a_at) / RFU HIST1H1D (11736915_at) / Fold change /veh HIST1H1D (11736915_at) / RFU CASKIN2 (11723855_a_at) / Fold change /veh CASKIN2 (11723855_a_at) / RFU LOC730098 (11760151_x_at) / Fold change /veh LOC730098 (11760151_x_at) / RFU OR4N2 (11742367_at) / Fold change /veh OR4N2 (11742367_at) / RFU PRRT2 (11749266_a_at) / Fold change /veh PRRT2 (11749266_a_at) / RFU SNX32 (11753110_a_at) / Fold change /veh SNX32 (11753110_a_at) / RFU CDHR5 (11726645_a_at) / Fold change /veh CDHR5 (11726645_a_at) / RFU RCAN1 (11760418_a_at) / Fold change /veh RCAN1 (11760418_a_at) / RFU FAM167A (11723789_a_at) / Fold change /veh FAM167A (11723789_a_at) / RFU FAM26E (11764081_at) / Fold change /veh FAM26E (11764081_at) / RFU ISYNA1 (11749810_s_at) / Fold change /veh ISYNA1 (11749810_s_at) / RFU ACY1 (11761880_at) / Fold change /veh ACY1 (11761880_at) / RFU 11764098_at / Fold change /veh 11764098_at / RFU SAMD14 (11745864_x_at) / Fold change /veh SAMD14 (11745864_x_at) / RFU NPB (11741838_a_at) / Fold change /veh NPB (11741838_a_at) / RFU TMPRSS6 (11731388_a_at) / Fold change /veh TMPRSS6 (11731388_a_at) / RFU KRTAP10-2 (11738614_at) / Fold change /veh KRTAP10-2 (11738614_at) / RFU ARHGAP8 /// PRR5-ARHGAP8 (11727945_x_at) / Fold change /veh ARHGAP8 /// PRR5-ARHGAP8 (11727945_x_at) / RFU KRTAP5-7 /// NADSYN1 (11734609_at) / Fold change /veh KRTAP5-7 /// NADSYN1 (11734609_at) / RFU RASL12 (11751679_a_at) / Fold change /veh RASL12 (11751679_a_at) / RFU CDKN2B (11736163_a_at) / Fold change /veh CDKN2B (11736163_a_at) / RFU PRF1 (11729649_at) / Fold change /veh PRF1 (11729649_at) / RFU, ZNF638 /// ZNF638-IT1 / Fold change vs veh, ZNF638 /// ZNF638-IT1 / RFU, PANK3 / Fold change vs veh, PANK3 / RFU, SH3YL1 / Fold change vs veh, SH3YL1 / RFU, ZEB2 / Fold change vs veh, ZEB2 / RFU, NRIP1 / Fold change vs veh, NRIP1 / RFU, PTTG1IP / Fold change vs veh, PTTG1IP / RFU, CAPN2 / Fold change vs veh, CAPN2 / RFU, MED14 / Fold change vs veh, MED14 / RFU, SNORA58 / Fold change vs veh, SNORA58 / RFU, C1orf63 / Fold change vs veh, C1orf63 / RFU, LRRFIP1 / Fold change vs veh, LRRFIP1 / RFU, NDUFAF7 / Fold change vs veh, NDUFAF7 / RFU, SLC12A2 / Fold change vs veh, SLC12A2 / RFU, IBTK / Fold change vs veh, IBTK / RFU, ESF1 / Fold change vs veh, ESF1 / Fold change vs veh, TMEM50B / RFU, TAOK1 / Fold change vs veh, TAOK1 / RFU, ACBD3 / Fold change vs veh, ACBD3 / RFU, TMA16 / Fold change vs veh, TMA16 / RFU, RWDD3 / Fold change vs veh, RWDD3 / RFU, BCAT1 / Fold change vs veh, BCAT1 / RFU, EDEM3 / Fold change vs veh, EDEM3 / RFU, TMEM33 / Fold change vs veh, TMEM33 / RFU, WDR75 / Fold change vs veh, WDR75 / RFU, AHCTF1 / Fold change vs veh, AHCTF1 / RFU, TFRC / Fold change vs veh, TFRC / RFU, ZDHHC17 / Fold change vs veh, ZDHHC17 / RFU, NOM1 / Fold change vs veh, NOM1 / RFU, ARL8B / Fold change vs veh, ARL8B / RFU, ZBTB11 / Fold change vs veh, ZBTB11 / RFU, TAMM41 / Fold change vs veh, TAMM41 / RFU, KIAA1704 /// LOC100996395 / Fold change vs veh, KIAA1704 /// LOC100996395 / RFU, ING1 / Fold change vs veh, ING1 / RFU, TRMT61B / Fold change vs veh, TRMT61B / RFU, FUBP3 / Fold change vs veh, FUBP3 / RFU, TP53 / Fold change vs veh, TP53 / RFU, TNKS2 / Fold change vs veh, TNKS2 / RFU, ZFP14 / Fold change vs veh, ZFP14 / RFU, ACTR2 / Fold change vs veh, ACTR2 / RFU, PPP3R1 / Fold change vs veh, PPP3R1 / RFU, PIK3R1 / Fold change vs veh, PIK3R1 / RFU, HNRNPA1 / Fold change vs veh, HNRNPA1 / RFU, RNF170 / Fold change vs veh, RNF170 / RFU, ZNF28 / Fold change vs veh, ZNF28 / RFU, RNGTT / Fold change vs veh, RNGTT / RFU, OGT / Fold change vs veh, OGT / RFU, BRD1 / Fold change vs veh, BRD1 / RFU, MARS / Fold change vs veh, MARS / RFU, ZNF655 / Fold change vs veh, ZNF655 / RFU, FAHD1 / Fold change vs veh, FAHD1 / RFU, BDP1 / Fold change vs veh, BDP1 / RFU, LRRCC1 / Fold change vs veh, LRRCC1 / RFU, ARID1A / Fold change vs veh, ARID1A / RFU, ZNF146 / Fold change vs veh, ZNF146 / RFU, ZNF330 / Fold change vs veh, ZNF330 / RFU, GPN3 / Fold change vs veh, GPN3 / RFU, C9orf123 / Fold change vs veh, C9orf123 / RFU, N4BP2L2 / Fold change vs veh, N4BP2L2 / RFU, ARFIP1 / Fold change vs veh, ARFIP1 / RFU, FAM179B / Fold change vs veh, FAM179B / RFU, BCL10 / Fold change vs veh, BCL10 / RFU, UHRF1BP1L / Fold change vs veh, UHRF1BP1L / RFU, BET1 / Fold change vs veh, BET1 / RFU, CNOT2 / Fold change vs veh, CNOT2 / RFU, ZNF268 / Fold change vs veh, ZNF268 / Fold change vs veh, ZNF507 / RFU, DGCR2 / Fold change vs veh, DGCR2 / RFU, WDSUB1 / Fold change vs veh, WDSUB1 / Fold change vs veh, HSP90B1 /// MIR3652 / RFU, ADSS / Fold change vs veh, ADSS / RFU, GK / Fold change vs veh, GK / RFU, ZNF148 / Fold change vs veh, ZNF148 / RFU, TAF9 / Fold change vs veh, TAF9 / RFU, SLC1A5 / Fold change vs veh, SLC1A5 / RFU, SLMO2 / Fold change vs veh, SLMO2 / RFU, ABCC4 / Fold change vs veh, ABCC4 / RFU, LOC101060439 /// RAP1B / Fold change vs veh, LOC101060439 /// RAP1B / RFU, RFX7 / Fold change vs veh, RFX7 / RFU, GTPBP10 / Fold change vs veh, GTPBP10 / RFU, CNEP1R1 / Fold change vs veh, CNEP1R1 / RFU, BIVM-ERCC5 /// ERCC5 / Fold change vs veh, BIVM-ERCC5 /// ERCC5 / RFU, ILF3 / Fold change vs veh, ILF3 / RFU 11762660_at / Fold change /veh 11762660_at / RFU VCAN (11757783_s_at) / Fold change /veh VCAN (11757783_s_at) / RFU DDX43 (11728927_at) / Fold change /veh DDX43 (11728927_at) / RFU KRT8 (11758188_x_at) / Fold change /veh KRT8 (11758188_x_at) / RFU NKD1 (11759106_at) / Fold change /veh NKD1 (11759106_at) / RFU SRD5A1 (11742802_a_at) / Fold change /veh SRD5A1 (11742802_a_at) / RFU TPSAB1 /// TPSB2 (11721975_s_at) / Fold change /veh TPSAB1 /// TPSB2 (11721975_s_at) / RFU GSTM3 (11746129_a_at) / Fold change /veh GSTM3 (11746129_a_at) / RFU IL23R (11737362_x_at) / Fold change /veh IL23R (11737362_x_at) / RFU TMEM51 (11727254_a_at) / Fold change /veh TMEM51 (11727254_a_at) / RFU PIWIL2 (11732686_x_at) / Fold change /veh PIWIL2 (11732686_x_at) / RFU ORM1 (11744905_x_at) / Fold change /veh ORM1 (11744905_x_at) / RFU CCDC152 (11743942_at) / Fold change /veh CCDC152 (11743942_at) / RFU ECM1 (11717891_a_at) / Fold change /veh ECM1 (11717891_a_at) / RFU IL23R (11748794_a_at) / Fold change /veh IL23R (11748794_a_at) / RFU TNFAIP8L3 (11732012_x_at) / Fold change /veh TNFAIP8L3 (11732012_x_at) / RFU MBOAT4 (11741988_at) / Fold change /veh MBOAT4 (11741988_at) / RFU 11764193_at / Fold change /veh 11764193_at / RFU TMEM53 (11763286_at) / Fold change /veh TMEM53 (11763286_at) / RFU MAGEB2 (11727129_at) / Fold change /veh MAGEB2 (11727129_at) / RFU TMEM200A (11744735_a_at) / Fold change /veh TMEM200A (11744735_a_at) / RFU CCDC152 (11751479_a_at) / Fold change /veh CCDC152 (11751479_a_at) / RFU FAM211A (11726209_a_at) / Fold change /veh FAM211A (11726209_a_at) / RFU RGS16 (11746705_a_at) / Fold change /veh RGS16 (11746705_a_at) / RFU VCAN (11755009_s_at) / Fold change /veh VCAN (11755009_s_at) / RFU RHOB (11743442_s_at) / Fold change /veh RHOB (11743442_s_at) / RFU RGS16 (11720943_a_at) / Fold change /veh RGS16 (11720943_a_at) / RFU RGS16 (11720944_at) / Fold change /veh RGS16 (11720944_at) / RFU, VPS4B / Fold change vs veh, VPS4B / RFU, CREB1 / Fold change vs veh, CREB1 / RFU, DNAJC13 / Fold change vs veh, DNAJC13 / RFU, GNAQ / Fold change vs veh, GNAQ / RFU, CDK5R1 / Fold change vs veh, CDK5R1 / RFU, ZRANB3 / Fold change vs veh, ZRANB3 / RFU, CUL4A / Fold change vs veh, CUL4A / RFU, CCNY / Fold change vs veh, CCNY / RFU, UFL1 / Fold change vs veh, UFL1 / RFU, COG3 / Fold change vs veh, COG3 / RFU, DIAPH2 / Fold change vs veh, DIAPH2 / RFU, SKA2 / Fold change vs veh, SKA2 / RFU, AFF3 / Fold change vs veh, AFF3 / RFU, LMF1 / Fold change vs veh, LMF1 / RFU, IPO11 / Fold change vs veh, IPO11 / RFU, DFFB / Fold change vs veh, DFFB / RFU, FOXP1 / Fold change vs veh, FOXP1 / RFU, CARD8 / Fold change vs veh, CARD8 / RFU, STRN3 / Fold change vs veh, STRN3 / RFU, ADK / Fold change vs veh, ADK / RFU, RASSF2 / Fold change vs veh, RASSF2 / RFU, WIPF1 / Fold change vs veh, WIPF1 / RFU, LARP1B / Fold change vs veh, LARP1B / RFU, RASA1 / Fold change vs veh, RASA1 / RFU, RB1 / Fold change vs veh, RB1 / RFU, PPFIA1 / Fold change vs veh, PPFIA1 / RFU, MAT2A / Fold change vs veh, MAT2A / RFU, CCT5 / Fold change vs veh, CCT5 / RFU, WDR92 / Fold change vs veh, WDR92 / RFU, CUX1 / Fold change vs veh, CUX1 / RFU, TTC7A / Fold change vs veh, TTC7A / RFU, TMEM135 / Fold change vs veh, TMEM135 / RFU, DEPTOR / Fold change vs veh, DEPTOR / RFU, CPM / Fold change vs veh, CPM / RFU, DNAJB6 / Fold change vs veh, DNAJB6 / RFU, CACNA2D3 / Fold change vs veh, CACNA2D3 / RFU, DTX4 / Fold change vs veh, DTX4 / RFU, TFCP2 / Fold change vs veh, TFCP2 / RFU, GMCL1 /// GMCL1P1 / Fold change vs veh, GMCL1 /// GMCL1P1 / RFU, AEBP2 / Fold change vs veh, AEBP2 / RFU, SNHG1 /// SNORD22 /// SNORD25 /// SNORD26 /// SNORD27 /// SNORD28 /// SNORD29 /// SNORD31 / Fold change vs veh, SNHG1 /// SNORD22 /// SNORD25 /// SNORD26 /// SNORD27 /// SNORD28 /// SNORD29 /// SNORD31 / Fold change (Aza/veh), C12orf56 (ProbeSet 11735607_a_at) / Fold change (ACY-1035/veh), C12orf56 (ProbeSet 11735607_a_at) / Fold change (Aza/veh), FGFR1OP (ProbeSet 11751329_s_at) / Fold change (ACY-1035/veh), FGFR1OP (ProbeSet 11751329_s_at) / Fold change (Aza/veh), VPS36 (ProbeSet 11739960_a_at) / Fold change (ACY-1035/veh), VPS36 (ProbeSet 11739960_a_at) / RFU SYPL1 (11715823_x_at) / Fold change /veh SYPL1 (11715823_x_at) / RFU IGFBP7 (11715501_s_at) / Fold change /veh IGFBP7 (11715501_s_at) / RFU REEP3 (11722064_at) / Fold change /veh REEP3 (11722064_at) / RFU IGLL1 (11728026_x_at) / Fold change /veh IGLL1 (11728026_x_at): dose or concentration left out as unconfirmed
Conditions: ProbeSet 11723930_at; LIST D

Compound: Nc1ccc(-c2cccs2)cc1NC(=O)c1ccc2c(c1)cc(C1CC1)n2CCN1CCOCC1 [ACY-1035]
- RFU, CCT5: 132.28 RFU
